Read-outs that look alike come from different tables or passages of the source.
Assays:
MAGL [1] = biological target: T1, MAGL (Mus musculus (Mouse), UniProt O35678); assay: Mouse brain proteomes from inhibitor treated mice (oral gavage, brain MAGL activity 4 h after administration); type: in vivo; settings: 5 mg/kg oral gavage
Procedure: Preparation of Mouse Brain Proteomes from Inhibitor Treated Mice.
Inhibitors were administered to wild-type C57B1/6J by oral gavage in a vehicle of polyethylene glycol.

MAGL [2] = biological target: MAGL (Homo sapiens (Human), UniProt Q99685); assay: In vitro competitive activity-based protein profiling (gel-based, FP-Rh or HT-01 probe); type: biochemical; settings: for IC50: read-out: MAGL Human PC3 (IC50)
Procedure: In Vitro Competitive Activity-Based Protein Profiling.
Proteomes (human prefrontal cortex or cell membrane fractions) (50 μL, 1.0 mg/mL total protein concentration) were preincubated with varying concentrations of inhibitors at 37° C. After 30 min, FP-Rh or HT-01 (1.0 μL, 50 μM in DMSO) was added and the mixture was incubated for another 30 min at room temperature. Reactions were quenched with SDS loading buffer (15 μL—4×) and run on SDS-PAGE.

MAGL [3] = biological target: T1, MAGL; assay: In vitro competitive activity-based protein profiling, mouse brain proteome; type: biochemical; settings: for inhibition at 1 µM: mouse; for IC50: mouse brain

T1 sequence (O35678 whole entry): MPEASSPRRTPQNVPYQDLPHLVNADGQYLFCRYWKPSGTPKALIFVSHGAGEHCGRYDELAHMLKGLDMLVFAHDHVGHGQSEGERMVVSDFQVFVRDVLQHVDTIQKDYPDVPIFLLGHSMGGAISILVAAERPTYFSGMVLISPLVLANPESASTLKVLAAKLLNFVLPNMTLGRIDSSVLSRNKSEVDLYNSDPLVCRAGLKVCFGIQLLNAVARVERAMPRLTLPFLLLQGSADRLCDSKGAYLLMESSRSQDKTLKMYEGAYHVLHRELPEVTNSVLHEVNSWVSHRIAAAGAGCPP
MAGL (Homo sapiens (Human), UniProt Q99685), sequence (Q99685 whole entry): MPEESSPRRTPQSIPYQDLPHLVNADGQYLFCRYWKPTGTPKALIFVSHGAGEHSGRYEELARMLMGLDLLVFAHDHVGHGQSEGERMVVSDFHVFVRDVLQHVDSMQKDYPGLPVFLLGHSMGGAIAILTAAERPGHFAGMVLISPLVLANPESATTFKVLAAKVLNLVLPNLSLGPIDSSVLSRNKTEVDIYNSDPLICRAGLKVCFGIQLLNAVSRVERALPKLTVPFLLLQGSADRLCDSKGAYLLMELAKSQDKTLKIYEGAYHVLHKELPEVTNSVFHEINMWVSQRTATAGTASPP

inhibition at 1 µM (MAGL [2]; human PC3, read-out: MAGL % Inhibition at 1 μM (human PC3)) [%]	inhibition at 1 µM (MAGL [2]; human PFC (prefrontal cortex), read-out: MAGL % Inhibition at 1 μM (human PFC)) [%]	IC50 (MAGL [2]; human PC3) [nM]	inhibition at 1 µM (MAGL [3]) [%]	IC50 (MAGL [3]) [nM]	SMILES	MAGL % Inhibition at 5 mg/kg (Mouse) (MAGL [1])
> 75	> 75	< 100	> 75		CC1(NC(=O)c2nnc3n2CCN(C2CCOCC2)C3)CCN(C(=O)OC(C(F)(F)F)C(F)(F)F)CC1 [Example 209, 1,1,1,3,3,3-Hexafluoropropan-2-yl 4-methyl-4-(7-(tetrahydro-2H-pyran-4-yl)-5,6,7,8-tetrahydro-[1,2,4]triazolo [4,3-a]pyrazine-3-carboxamido) piperidine-1-carboxylate]	### (% inhibition is greater than or equal to 75%)
		< 100	> 75	< 100	CC(C)n1cc(CN2CCCC23CCN(C(=O)OC(C(F)(F)F)C(F)(F)F)CC3)c(-c2ccccc2F)n1 [Example 221, 1,1,1,3,3,3-Hexafluoropropan-2-yl 1-((3-(2-fluorophenyl)-1-isopropyl-1H-pyrazol-4-yl)methyl)-1,8-diazaspiro[4.5] decane-8-carboxylate]	### (% inhibition is greater than or equal to 75%)
		< 100	> 75	< 100	O=C(OC(C(F)(F)F)C(F)(F)F)N1CCC2(CCCN2Cc2cnc(N3CCCC3)s2)CC1 [Example 226, 1,1,1,3,3,3-Hexafluoropropan-2-yl 1-((2-(pyrrolidin-1-yl)thiazol-5-yl)methyl)-1,8-diazaspiro[4.5]decane-8-carboxylate]	### (% inhibition is greater than or equal to 75%)
		< 100	> 75	< 100	O=C(OC(C(F)(F)F)C(F)(F)F)N1CCC2(CCCN2Cc2cnc3ccccn23)CC1 [Example 228, 1,1,1,3,3,3-Hexafluoropropan-2-yl 1-(imidazo [1,2-a]pyridin-3-ylmethyl)-1,8-diazaspiro[4.5]decane-8-carboxylate]	### (% inhibition is greater than or equal to 75%)
		< 100	> 75	< 100	O=C(OC(C(F)(F)F)C(F)(F)F)N1CCC2(CCCN2Cc2cnc3ccc(Cl)cn23)CC1 [Example 229, 1,1,1,3,3,3-Hexafluoropropan-2-yl 1-((6-chloroimidazo[1,2-a]pyridin-3-yl)methyl)-1,8-diazaspiro[4.5]decane-8-carboxylate]	### (% inhibition is greater than or equal to 75%)

Reference: patent publication US11142526B2, “Spirocycle compounds and methods of making and using same” (H. Lundbeck A/S, priority 2017, dated 2021)
